Patent US20260091050A1, “ADVANTAGEOUS ANTI-HCV COMBINATION THERAPY” (Atea Pharmaceuticals, Inc., priority 2021, published 2026)

Experiments:
[1] = target: human mitochondrial RNA-dependent RNA polymerase (POLRMT) (Homo sapiens, UniProt O00411); test: Incorporation of nucleotide analog triphosphates by human mitochondrial RNA polymerase; format: biochemical
Experimental: The incorporation of these analogs by human mitochondrial RNA-dependent RNA polymerase (POLRMT) were determined according to Arnold et al. (Sensitivity of Mitochondrial Transcription and Resistance of RNA Polymerase II Dependent Nuclear Transcription to Antiviral Ribonucleotides. PLoS Pathog., 2012, 8, e1003030).

[2] = Storage stability of Compound 1 forms and amorphous salts at 25° C./60% RH for 14 days (HPLC, observation); conditions: for Stability on storage: 14 days (2 weeks) at 25° C./60% RH
Experimental: This initial characterization was followed by storage at 25° C./60% relative humidity (RH) for 14 days with analysis by HPLC and XRPD after 7 and 14 days. FIG. 4A is the XRPD after 14 days at 25° C./60% (RH).
The samples were then frozen with the solvent removed by lyophilization.
The samples were then subjected to storage at 25° C./60% relative humidity (RH) for 14 days with analysis by HPLC and XRPD after 7 (FIG. 4B) and 14 days (FIG. 5A).

[3] = Plasma profiles of Compound 1 and metabolite 1-7 after single oral dose of Compound 1-A, Sprague-Dawley rats; format: in vivo; conditions: rat, single oral dose of Compound 1-A 500 mg/kg (0.5% CMC, 0.5% Tween 80 in water)
[4] = Plasma profiles of Compound 1 and metabolite 1-7 after single oral doses of Compound 1-A, cynomolgus monkeys; format: in vivo; conditions: monkey
[5] = Single ascending dose study of Compound 1-A in healthy volunteers (Part A); format: in vivo, human; conditions: healthy subjects, single dose of Compound 1-A 400 mg, median (range)
Experimental: Compound 1-A was tested in a single ascending dose (SAD) study to measure its safety, tolerability, and pharmacokinetic in healthy subjects (Part A). Part A was a randomized, double-blind, placebo-controlled SAD study. Healthy subjects in Part A received a single dose of Compound 1-A or placebo in the fasting state. Subjects were confined to the clinic from Day −1 to Day 6.
Dosing in each cohort was staggered such that 2 subjects (1 active:1 placebo) were evaluated for 48 hours after dosing before the remainder of the cohort was dosed. Each cohort received Compound 1-A in ascending order. Dosing of sequential cohorts occurred based on review of available safety data (through Day 5) and plasma pharmacokinetic data (through 24 h) of the prior cohort.
As pharmacokinetic and safety data emerged from prior cohorts, doses evaluated in Cohorts 3a-4a were adjusted by increments no more than 100 mg.
Healthy volunteers in the Part A portion of the study were male and female subjects between the ages of 18 and 65. Active and placebo recipients were pooled within each Part A cohort to preserve the study blind.

GT1 HCV [6] = test: Single ascending dose study of Compound 1-A in GT1-HCV infected patients (Part B); format: in vivo, human; conditions: GT1-HCV infected patients, Compound 1-A 300 mg (second 300 mg line), median (range)
Experimental: Subjects in Part B received a single dose of Compound 1-A in the fasting state. Patients were confined to the clinic from Day −1 to Day 6.
Part B was initiated after the safety (through Day 5) and plasma pharmacokinetic (through 24 h) data review from Cohort 3a in Part A. Available safety data (through Day 5) and pharmacokinetic data (through 24 h) was reviewed for the first cohort in Part B (Cohort 1b) before enrolling subsequent Part B cohorts. Subsequent Part B cohorts were only dosed following review of available safety and pharmacokinetic data from the respective doses in Part A as well as available safety (through Day 5) from the prior Part B cohorts.
Patients infected with HCV were treatment-naïve, non-cirrhotic GT1-infected subjects with a viral load of ≥5 log10 IU/mL.
Baseline was defined as the mean of Day −1 and Day 1 (pre-dose). […] The mean maximum HCV RNA reduction 24 hours post-dose following a single 300 mg dose was 1.7 log10 IU/mL and this compares to a −2 log 10 IU/mL reduction after 1 day of 400 mg of sofosbuvir monotherapy in GT1a HCV-infected subjects. The mean maximum HCV RNA reduction 24 hours post-dose following a single 100 mg dose was 0.8 log10 IU/mL. The mean 10 maximum HCV RNA reduction was 2.2 log10 IU/mL following a single 400 mg dose.

GT1 HCV [7] = test: Multiple dose study, 7 days QD, non-cirrhotic GT1 HCV-infected patients (Part C); format: in vivo, human
Experimental: (§1) Doses were administered as the Compound 1-A salt base. The free base Compound 1 equivalent is often given in parenthesis.
(§2) Part C was a randomized, double-blind, placebo-controlled MAD study divided into three cohorts. […] The dose escalation only proceeded following satisfactory review of the data.
(§3) HCV-infected patients were treatment-naïve with HCV RNA ≥5 log 10 IU/mL. HCV RNA was quantified using COBAS® AmpliPrep TaqMAN® v2.0 with LLQ of 15 IU/mL. Plasma drug levels were measured using LC-MS/MS. […] Mean ages of enrolled subjects were 44, 39, and 56 years in the non-cirrhotic GT1b 600 mg dose cohort, non-cirrhotic GT3 cohort, and the cirrhotic cohort, respectively.

GT3 HCV = test: 600 mg QD for 7 days in non-cirrhotic GT3 HCV-infected patients (Part D); format: in vivo, human; conditions: 600 mg QD, Part D
Experimental: as §1, §2, §3

GT1, GT2, or GT3 HCV = test: 600 mg QD for 7 days in Child-Pugh A cirrhotic patients with GT1, GT2 or GT3 HCV (Part E); format: in vivo, human
Experimental: Doses were administered as the Compound 1-A salt base. The free base Compound 1 equivalent is often given in parenthesis. […]
as §3

[8] = Three-part study (Parts C, D, E) of Compound 1-A: overall safety/tolerability and pharmacokinetics; format: in vivo, human; conditions: for AUC: human, plasma, oral, Part C
Experimental: as §2
HCV-infected patients were treatment-naïve with HCV RNA ≥5 log 10 IU/mL. […] Plasma drug levels were measured using LC-MS/MS.

[9] = system: replicons containing the NS5B sequences from HCV patient plasma samples (GT1a, 1b, 2a, 2b, 3a-1, 3a-2, 4a and 4d); test: Replicons containing NS5B sequences from HCV patient plasma samples (clinical isolates); format: cell-based; conditions: GT1, GT3, and GT4 clinical isolates, nucleoside equivalent
HCV = conditions: cited from earlier work
[10] = incorporation by human mitochondrial RNA polymerase
[11] = single oral dose of Compound 1-A 30 mg/kg (powder in capsules)
[12] = single oral dose of Compound 1-A 100 mg/kg (powder in capsules)
[13] = single oral dose of Compound 1-A 300 mg/kg (powder in capsules)

Sequence of human mitochondrial RNA-dependent RNA polymerase (POLRMT) (O00411 42-1230): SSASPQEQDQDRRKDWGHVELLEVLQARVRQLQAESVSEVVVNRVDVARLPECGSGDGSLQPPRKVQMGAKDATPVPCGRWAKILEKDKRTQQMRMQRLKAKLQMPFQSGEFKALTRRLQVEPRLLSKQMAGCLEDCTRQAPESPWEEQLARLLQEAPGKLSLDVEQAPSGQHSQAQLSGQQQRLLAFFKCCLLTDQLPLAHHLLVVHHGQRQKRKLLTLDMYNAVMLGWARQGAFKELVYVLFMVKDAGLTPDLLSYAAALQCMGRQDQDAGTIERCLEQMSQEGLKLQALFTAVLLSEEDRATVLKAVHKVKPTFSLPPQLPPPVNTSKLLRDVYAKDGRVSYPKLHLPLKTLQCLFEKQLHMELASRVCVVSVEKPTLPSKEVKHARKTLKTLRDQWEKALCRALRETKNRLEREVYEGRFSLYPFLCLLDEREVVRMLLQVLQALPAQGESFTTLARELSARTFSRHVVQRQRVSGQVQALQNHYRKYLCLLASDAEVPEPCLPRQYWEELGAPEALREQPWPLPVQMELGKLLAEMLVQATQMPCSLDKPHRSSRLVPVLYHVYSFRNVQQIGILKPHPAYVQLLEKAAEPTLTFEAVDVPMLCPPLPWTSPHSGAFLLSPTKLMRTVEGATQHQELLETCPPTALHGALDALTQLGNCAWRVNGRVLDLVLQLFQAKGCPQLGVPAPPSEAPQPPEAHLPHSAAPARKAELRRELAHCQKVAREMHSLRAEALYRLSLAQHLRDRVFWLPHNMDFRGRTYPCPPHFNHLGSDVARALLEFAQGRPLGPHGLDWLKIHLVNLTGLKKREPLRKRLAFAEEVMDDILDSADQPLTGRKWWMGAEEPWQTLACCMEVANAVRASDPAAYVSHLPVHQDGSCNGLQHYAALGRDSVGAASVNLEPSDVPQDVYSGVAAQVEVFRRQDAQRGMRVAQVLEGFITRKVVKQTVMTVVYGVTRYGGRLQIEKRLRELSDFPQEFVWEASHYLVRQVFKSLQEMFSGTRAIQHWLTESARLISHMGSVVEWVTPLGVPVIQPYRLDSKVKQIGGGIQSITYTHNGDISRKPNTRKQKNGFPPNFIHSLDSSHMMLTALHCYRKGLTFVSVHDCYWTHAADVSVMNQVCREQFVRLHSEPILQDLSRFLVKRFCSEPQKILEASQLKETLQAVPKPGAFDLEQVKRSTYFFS

## C[C@@]1(O)[C@H](O)[C@@H](COP(=O)(O)OP(=O)(O)OP(=O)(O)O)O[C@H]1n1cnc2c(=O)[nH]c(N)nc21 [2′-C-methyl GTP]
[1]; [10]
  Kpol: 0.051 s⁻¹

## C[C@@]1(F)[C@H](O)C(CO[P@@](=O)(O)OP(=O)(O)OP(=O)(O)O)O[C@H]1n1ccc(=O)[nH]c1=O (stereo partly drawn) [2′-deoxy-2′-F-2′-C-methyl UTP]
[1]; [10]
  Kpol: 0.00034 s⁻¹

## CNc1nc(N)nc2c1ncn2[C@@H]1O[C@H](CO[P@@](=O)(N[C@@H](C)C(=O)OC(C)C)Oc2ccccc2)[C@@H](O)[C@@]1(C)F [Sample 1-1, isopropyl((S)-(((2R,3R,4R,5R)-5-(2-amino-6-(methylamino)-9H-purin-9-yl)-4-fluoro-3-hydroxy-4-methyltetrahydrofuran-2-yl)methoxy)(phenoxy)phosphoryl)-L-alaninate]
[2]; 0 days at 25° C./60% RH
  HPLC: 98.6
  Observation: White solid
[2]; 7 days at 25° C./60% RH
  HPLC: 98.7
  Observation: White solid
[2]
  Stability on storage: stable
[2]; 14 days at 25° C./60% RH
  HPLC: 98.5
  Observation: White solid

## CNc1nc(N)nc2c1ncn2[C@@H]1O[C@H](CO[P@@](=O)(N[C@@H](C)C(=O)OC(C)C)Oc2ccccc2)[C@@H](O)[C@@]1(C)F [Sample 1-2, isopropyl((S)-(((2R,3R,4R,5R)-5-(2-amino-6-(methylamino)-9H-purin-9-yl)-4-fluoro-3-hydroxy-4-methyltetrahydrofuran-2-yl)methoxy)(phenoxy)phosphoryl)-L-alaninate]
[2]; 0 days at 25° C./60% RH
  HPLC: 99.1
  Observation: White solid
[2]; 7 days at 25° C./60% RH
  HPLC: 99.2
  Observation: White solid
[2]
  Stability on storage: stable
[2]; 14 days at 25° C./60% RH
  HPLC: 99.0
  Observation: White solid

## CNc1nc(N)nc2c1ncn2[C@@H]1O[C@H](CO[P@@](=O)(N[C@@H](C)C(=O)OC(C)C)Oc2ccccc2)[C@@H](O)[C@@]1(C)F [Sample 1-3]
[2]; 0 days at 25° C./60% RH
  HPLC: 99.7
  Observation: White solid
[2]; 7 days at 25° C./60% RH
  HPLC: 99.6
  Observation: White solid
[2]; 14 days at 25° C./60% RH
  HPLC: 99.4
  Observation: White solid

## CNc1nc(N)nc2c1ncn2[C@@H]1O[C@H](CO[P@@](=O)(N[C@@H](C)C(=O)OC(C)C)Oc2ccccc2)[C@@H](O)[C@@]1(C)F [Sample 1-9]
[2]; 0 days at 25° C./60% RH
  HPLC: 98.7
  Observation: White solid
[2]; 7 days at 25° C./60% RH
  HPLC: 98.1
  Observation: White solid
[2]
  Stability on storage: physically and chemically stable
[2]; 14 days at 25° C./60% RH
  HPLC: 96.4
  Observation: White solid

## C[C@@]1(F)[C@H](O)[C@@H](COP(=O)(O)OP(=O)(O)OP(=O)(O)O)O[C@H]1n1cnc2c(=O)[nH]c(N)nc21 [metabolite 1-6]
[1]
  incorporation by human mitochondrial RNA polymerase: poorly incorporated
[1]; (Kpol/Kd, app)analog nucleotide/(Kpol/Kd, app)natural nucleotide
  Relative Efficiency: 2.2 × 10^−6
[1]; [10]
  Kpol: 0.0017 s⁻¹
  Kpol/Kd, app: 8.3 M⁻¹ s⁻¹
[1]; incorporation by human mitochondrial RNA polymerase, read-out: Kd, app
  Kd: 204 µM

## C[C@@]1(F)[C@H](O)[C@@H](CO)O[C@H]1n1cnc2c(=O)[nH]c(N)nc21 [metabolite 1-7, 2-amino-9-((2R,3R,4R,5R)-3-fluoro-4-hydroxy-5-(hydroxymethyl)-3-methyltetrahydrofuran-2-yl)-1,9-dihydro-6H-purin-6-one]
[3]
  AUC0-last: 9640 ng·h/mL
  Cmax: 541 ng/mL
  T1/2: 15.3 h
  Tmax: 6 to 8 h
[4]; [11]
  AUC0-last: 1620 ng·h/mL
  Cmax: 42.5 ng/mL
  T1/2: 11.5 h
  Tmax: 12 to 24 h
[4]; [12]
  AUC0-last: 3030 ng·h/mL
  Cmax: 131 ng/mL
  T1/2: 15.0 h
  Tmax: 4 h
[4]; [13]
  AUC0-last: 3660 ng·h/mL
  Cmax: 93.6 ng/mL
  T1/2: 18.8 h
  Tmax: 4 to 24 h
[5]
  Tmax: 6.0 (4.0-8.0) h
GT1 HCV [6]
  Tmax: 4.0 (3.0-6.0) h
GT1 HCV [7]; 600 mg QD, non-cirrhotic GT1b, LOQ=15 IU/mL
  subjects achieving HCV RNA <LOQ: 50%
GT1 HCV [7]; Part C
  time of peak formation after dosing: approximately 6 hours
GT3 HCV
  subjects achieving HCV RNA below the lower limit of quantitation: 17%
GT1, GT2, or GT3 HCV; 600 mg QD, Part E
  subjects achieving HCV RNA below the lower limit of quantitation: 17%
GT1, GT2, or GT3 HCV; subjects with cirrhosis
  day on which steady state of concentrations was reached: 5 days
[8]; Part E, 600 mg/d (n=6), steady state
  T1/2 SS: 24.4 ± 9.81 h
[8]; 150 mg/d, AUC Day 1 (AUC, for Metabolite 1-7), 150 mg/d (n=6), Day 1
  AUC: 800 ± 213 ng·h/mL
[8]; 150 mg/d, AUC SS (AUC, for Metabolite 1-7), 150 mg/d (n=6), steady state
  AUC: 962 ± 409 ng·h/mL
[8]; 300 mg/d, AUC Day 1 (AUC, for Metabolite 1-7), 300 mg/d (n=6), Day 1
  AUC: 1410 ± 220 ng·h/mL
[8]; 300 mg/d, AUC SS (AUC, for Metabolite 1-7), 300 mg/d (n=6), steady state
  AUC: 1830 ± 453 ng·h/mL
[8]; in vivo
  food effect on total and trough exposure: No food effect

## CC(C)OC(=O)[C@H](C)N[P@](=O)(OC[C@H]1O[C@@H](n2ccc(=O)[nH]c2=O)[C@](C)(F)[C@@H]1O)Oc1ccccc1 [sofosbuvir]
[9]
  EC95: greater than 100 ng/mL
HCV; after 1 day of 400 mg monotherapy, GT1a HCV-infected subjects
  HCV RNA reduction: −2 log 10 IU/mL
HCV; similar dosage form (400 mg QD)
  steady-state trough concentration: approximately 100 ng/mL
